Results published in paper PMC9952270, “Mitochondrial Peroxiredoxin 3 Is Rapidly Oxidized and Hyperoxidized by Fatty Acid Hydroperoxides” (Antioxidants, 2023).
Blank lines part the entries; values can stand above or below the molecule they belong to.

Columns and labels:
[1] = biological target: T1, HsPrx3 (human peroxiredoxin 3, wtHsPrx3) (Homo sapiens, UniProt P30048); assay: intrinsic tryptophan fluorescence quenching / FRET titration, hyperbolic fit; assay type: binding
T1 construct: gene PRDX3; three additional N-terminal Gly; E. coli BL21 Star (DE3); reduced subunit predicted 21,797 Da; three Cys; dodecamer when reduced
T1 sequence (P30048 62-256): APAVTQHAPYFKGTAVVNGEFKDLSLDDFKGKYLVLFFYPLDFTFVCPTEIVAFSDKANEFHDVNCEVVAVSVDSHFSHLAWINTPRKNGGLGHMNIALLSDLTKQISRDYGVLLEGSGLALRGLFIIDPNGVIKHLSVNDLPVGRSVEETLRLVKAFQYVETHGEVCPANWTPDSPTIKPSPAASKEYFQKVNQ

[2] = biological target: T1, HsPrx3 (human peroxiredoxin 3, wtHsPrx3); assay: stopped-flow intrinsic fluorescence, slope of kobs of second phase; assay type: biochemical; conditions: rate constant of peroxidatic Cys hyperoxidation; covalent oxidation, inactivating; pH 7.8, 11–12 °C, 50 mM sodium phosphate, 0.1 mM DTPA
Description: stopped-flow intrinsic fluorescence, slope of kobs of second phase on HsPrx3 (human peroxiredoxin 3, wtHsPrx3)

[3] = biological target: T1, HsPrx3 (human peroxiredoxin 3, wtHsPrx3); assay: thermal unfolding by intrinsic fluorescence; assay type: binding; conditions: reduced HsPrx3 4 µM, AA 10 µM, 2 mM DTT, 50 mM phosphate, 0.1 mM DTPA, pH 7.8
[4] = biological target: the molecule itself; assay: ESI mass spectrometry of the intact protein after C4 HPLC; reduced HsPrx3 (10 µM) in 50 mM phosphate buffer plus 0.1 mM DTPA, pH 7.8, 25 °C, exposed to H2O2 (20 µM) or 15(S)-HpEPE (10 or 20 µM), alkylated with 2-iodoacetamide (5 mM); disulfide-bonded dimer

Molecule: CCCCC[C@@H](/C=C/[C@@H]1[C@@H](C/C=C\CCCC(=O)O)[C@@H]2C[C@H]1OO2)OO [PGG2, 9α,11α-epidioxy-15S-hydroperoxy-prosta-5Z,13E-dien-1-oic acid]
khyperox. (M^-1s^-1) [2]: (3.1 ± 0.7) × 10^5 M^−1s^−1

Molecule: CC/C=C\C[C@@H](/C=C/C=C\C/C=C\C/C=C\CCCC(=O)O)OO [15(S)-HpEPE, 15S-hydroperoxy-5Z,8Z,11Z,13E,17Z-eicosapentaenoic acid]
khyperox. (M^-1s^-1) [2]: (2.6 ± 0.4) × 10^7 M^−1s^−1

B1: Human peroxiredoxin 3 (wild type, recombinant, lacking the mitochondrial targeting sequence) (enzyme)
chain: GGGAPAVTQHAPYFKGTAVVNGEFKDLSLDDFKGKYLVLFFYPLDFTFVCPTEIVAFSDKANEFHDVNCEVVAVSVDSHFSHLAWINTPRKNGGLGHMNIALLSDLTKQISRDYGVLLEGSGLALRGLFIIDPNGVIKHLSVNDLPVGRSVEETLRLVKAFQYVETHGEVCPANWTPDSPTIKPSPAASKEYFQKVNQ
notes: predicted molecular weight of the reduced subunit 21,797 Da; Samples were alkylated (NEM or 2-iodoacetamide) before analysis; also called HsPrx3; wtHsPrx3; source: E. coli BL21 Star (DE3), purified as previously reported [13]
stoichiometry N [4]: 2

Next, values leading:

Kd [1]: 65 ± 4 µM
Molecule: O=S(=O)(O)c1cccc2cccc(Nc3ccccc3)c12 [ANS, 8-anilino-1-naphtalene sulfonic acid]

khyperox. (M^-1s^-1) [2]: (1.7 ± 0.1) × 10^7 M^−1s^−1
Molecule: CCCCC[C@@H](/C=C/C=C\C/C=C\C/C=C\CCCC(=O)O)OO [15(S)-HpETE, 15S-hydroperoxy-5Z,8Z,11Z,13E-eicosatetraenoic acid]

Tm shift [3]: ~ 4 °C
Molecule: CCCCC/C=C\C/C=C\C/C=C\C/C=C\CCCC(=O)O [AA]
